# Patent publication US6376682B1, “Compound with α-glucosidase inhibiting action and method for producing the same” (Takama System, Ltd., priority 2000, dated 2002)
# How the values were obtained:
# [1] = system: blood sugar elevation caused by sucrose loading; assay: Inhibiting effect on hyperglycemia in the case of sucrose loading; format: in vivo, male Wistar rats; settings: rats; for Rate of inhibition of blood sugar elevation 30 minutes: po, 30 minutes after sucrose loading
# Procedure: The test was oraly administered as an aqueous solution to fasting male Wistar rats (body weight: 130 to 170 g.
# Next after 30 minutes, the sucrose was orally administered to the rats.
# Then, 30 minutes, after the administered of the sugar, 0.4 ml of blood was taken from the neck artery of each animal with the animal under restraint without anesthesia (during blood collection only). following colling with ice water, the blood serum was separated by centrifuging, and the glucose concentration (blood sugar level) was measured by the glucose oxidase method (Glucose CII Test Wako).
# The above-described test was performed for the novel compound SP (product of the present invention) and Acabose(clnventional roduct).
# [2] = system: β-glucosidase originating in almonds; assay: Activity inhibiting effect on β-glucosidase; format: biochemical; settings: substrate p-nitrophenol-β-D-glycopyronoside, pH 5.0
# Procedure: β-glucosidase originating in almonds (manufactured by Sigma Co.) was dissolved in a 0.1 M acetic acid buffer solution (pH=5.0), and this solution was diluted to a concentration at which the substrate was hydrolyzed at the rate of 5 n/mol/ml/minute.
# 100 μL of the test drug was added to 50 μL of 10 mM p-nitrophenol-β-D-glycopyronoside (manufactured by Sigma Co.) used as a substrate, and this mixture was preheated for 5 minutes at 37° C.
# Next, 50 μL of the enzyme solution was added, and a reaction was performed for 15 minutes. The reaction was stopped by adding 200 μL of a 0.2 M sodium carbonate solution.
# The amount of p-nitrophenol produced was determined from the absorbance at 400 nm.
# The substrate and test drug were both dissolved in a 0.1 M acetic acid buffer solution (pH=5.0) prior to use.
# [3] = biological target: T1, isomaltase originating in the small intestines of rats (Rattus norvegicus, UniProt P23739); assay: Inhibiting effect on isomaltase, rat jejunum brush border membrane crude enzyme; format: biochemical; settings: times stronger than Acarbose
# T1 construct: The brush border membrane obtained from the jejunum of male Wistar rats (body weight: 150 to 350 g) was used as a crude enzyme; from tissue; host or cells: jejunal brush border membrane of male Wistar rats
# T1 sequence (P23739 whole entry): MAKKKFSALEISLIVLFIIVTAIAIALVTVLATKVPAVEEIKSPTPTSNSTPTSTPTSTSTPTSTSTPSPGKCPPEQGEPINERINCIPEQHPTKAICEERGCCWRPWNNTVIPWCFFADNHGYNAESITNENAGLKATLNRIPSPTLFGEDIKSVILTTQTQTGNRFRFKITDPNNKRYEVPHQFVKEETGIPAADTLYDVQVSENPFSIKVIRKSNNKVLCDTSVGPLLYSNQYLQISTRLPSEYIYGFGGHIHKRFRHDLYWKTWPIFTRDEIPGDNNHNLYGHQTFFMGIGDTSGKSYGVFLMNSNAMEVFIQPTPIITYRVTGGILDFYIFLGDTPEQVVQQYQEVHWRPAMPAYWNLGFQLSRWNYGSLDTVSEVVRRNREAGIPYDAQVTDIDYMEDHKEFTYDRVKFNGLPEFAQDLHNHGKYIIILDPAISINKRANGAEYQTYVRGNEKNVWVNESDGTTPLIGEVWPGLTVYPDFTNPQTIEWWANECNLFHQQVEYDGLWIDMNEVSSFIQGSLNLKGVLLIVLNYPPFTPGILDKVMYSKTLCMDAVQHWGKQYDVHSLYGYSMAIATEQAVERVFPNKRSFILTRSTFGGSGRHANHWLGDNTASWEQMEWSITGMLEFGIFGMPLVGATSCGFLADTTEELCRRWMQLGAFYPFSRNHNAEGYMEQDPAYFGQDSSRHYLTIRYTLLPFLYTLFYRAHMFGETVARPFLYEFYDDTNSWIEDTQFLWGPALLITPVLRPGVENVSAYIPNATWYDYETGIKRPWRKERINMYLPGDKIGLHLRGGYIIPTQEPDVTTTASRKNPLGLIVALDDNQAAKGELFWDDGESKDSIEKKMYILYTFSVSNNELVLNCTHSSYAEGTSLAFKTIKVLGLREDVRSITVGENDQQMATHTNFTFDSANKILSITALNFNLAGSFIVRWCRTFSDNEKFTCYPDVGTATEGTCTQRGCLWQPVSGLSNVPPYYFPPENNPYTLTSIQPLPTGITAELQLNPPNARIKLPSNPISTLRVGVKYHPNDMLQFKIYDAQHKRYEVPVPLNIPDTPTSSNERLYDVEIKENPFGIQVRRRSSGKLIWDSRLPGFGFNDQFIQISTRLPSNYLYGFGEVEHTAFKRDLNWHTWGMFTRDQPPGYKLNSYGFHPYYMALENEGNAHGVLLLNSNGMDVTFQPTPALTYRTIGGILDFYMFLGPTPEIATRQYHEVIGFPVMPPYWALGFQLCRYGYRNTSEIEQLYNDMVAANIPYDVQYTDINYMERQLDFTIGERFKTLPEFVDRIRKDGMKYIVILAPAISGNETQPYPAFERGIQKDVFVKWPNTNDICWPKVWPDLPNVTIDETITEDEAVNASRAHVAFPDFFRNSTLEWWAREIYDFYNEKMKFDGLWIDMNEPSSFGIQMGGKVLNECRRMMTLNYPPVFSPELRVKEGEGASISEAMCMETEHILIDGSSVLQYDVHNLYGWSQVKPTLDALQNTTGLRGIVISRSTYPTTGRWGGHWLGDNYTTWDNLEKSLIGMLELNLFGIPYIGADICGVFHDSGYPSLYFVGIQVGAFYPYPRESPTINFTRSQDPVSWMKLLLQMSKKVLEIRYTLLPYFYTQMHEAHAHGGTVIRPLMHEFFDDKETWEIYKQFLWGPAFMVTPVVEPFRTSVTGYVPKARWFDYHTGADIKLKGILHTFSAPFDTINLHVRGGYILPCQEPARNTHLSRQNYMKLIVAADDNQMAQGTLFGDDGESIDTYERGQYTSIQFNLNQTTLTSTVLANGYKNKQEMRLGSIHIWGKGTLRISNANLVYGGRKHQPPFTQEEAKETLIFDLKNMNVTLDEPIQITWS
# Procedure: The brush border membrane obtained from the jejunum of male Wistar rats (body weight: 150 to 350 g) was used as a crude enzyme.
# The brush border membrane was suspended in a 0.01 M maleic acid buffer solution (pH=6.0), and this suspension was diluted to a concentration at which the substrate was hydrolyzed at the rate of approximately 25 to 50 n/mol/ml/minute.
# For maltase, sucrase and isomaltase, 100 μL of various concentrations of the test drug was added to 50 μL of respective 74 mM maltose, sucrose and isomaltose (used as substrates), and the resulting preparations were pre-heated for 2 to 3 minutes at 37° C.
# Next, 50 μL of the enzyme solution was added, and a reaction was performed for 30 minutes. The reaction was stopped by adding 800 μL of water, and placing the reaction mixture in a water bath at 92 to 97° C. for 2 minutes.
# The amount of glucose produced was measured by the glucose oxidase method (Glucose CII Test Wako).
# In the above, the substrates and test drug were both dissolved in a maleic acid buffer solution (pH=6.0) prior to use.
Structure (SMILES),Rate of inhibition of blood sugar elevation 30 minutes ([1]; 5 mg/kg),Rate of inhibition of blood sugar elevation 30 minutes ([1]; 10 mg/kg),Rate of inhibition of blood sugar elevation 30 minutes ([1]; 25 mg/kg),Effect in inhibiting the elevation of blood sugar levels compared with Acarbose ([1]; sucrose loading),Activity inhibiting effect on β-glucosidase [2],Inhibitory effect against isomaltose relative to Acarbose [3]
"C[C@H]1O[C@H](O[C@H]2[C@H](O)[C@@H](O)[C@@H](O[C@H]3[C@H](O)[C@@H](O)C(O)O[C@@H]3CO)O[C@@H]2CO)[C@H](O)[C@@H](O)[C@@H]1N[C@H]1C=C(CO)[C@@H](O)[C@H](O)[C@H]1O (stereo partly drawn) [Acarbose, reference compound]",33.4 ± 6.2,48.5 ± 6.9,73.8 ± 5.2,–,–,–
O=S(=O)([O-])OC(CO)C(O)C[S+]1CC(O)C(O)C1CO (stereo not drawn) [SP],40.5 ± 2.3,62.1 ± 3.8,89.1 ± 3.5,stronger effect in inhibiting the elevation of blood sugar levels than Acarbose,no activity inhibiting effect,more than 200 times
